The record followed here is PubChem BioAssay (NCI).

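In this assay, cells in 96-well plates receive the compound at five concentrations for 48 hours. Endpoints are linearly interpolated between the surrounding concentrations. Abbreviation: GI50, concentration required for 50% inhibition of growth. At the TGI there is no net growth.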

What all share (test): inhibition of tumour cell growth, NCI panel, 48 h
The test system of test [1] is SK-MEL-28 melanoma.
In test [2] the test system is SF-268 CNS.
Test [3] concerns OVCAR-3 ovarian.
For test [4], the system named is NCI-H226 lung.
Test [5] relates to NCI/ADR-RES ovarian.
Test [6] relates to SK-MEL-5 melanoma.
Test [7] concerns T-47D breast.
The test system of test [8] is RXF 393 renal.

As to `CN1CC(C(=O)C2C(=O)c3ccccc3C2=O)C(=O)C(=O)C(C(=O)C2C(=O)c3ccccc3C2=O)C1` (stereo not given), the TGI in test [1] was over 100 µM; in test [2], over 100 µM; in test [3] it was over 10 µM.
With `CCOC(=O)/C=C/C(C(=O)/C=C/c1ccc(O)c(OC)c1)=C(O)\C=C\c1ccc(O)c(OC)c1`, the GI50 is 1.67 µM in test [4]; 2 µM in test [1]; 11.1 µM in test [2]; 2.13 µM in test [5]; 3.39 µM in test [3]; 2.22 µM in test [6]. For the same molecule, the GI50 in test [7] was 8.07 µM. For the same molecule, the TGI in test [4] was 5.1 µM; in test [1], 6.09 µM; in test [2], 95.1 µM; in test [5] it was 6.94 µM; in test [3], 12.3 µM; in test [6], 6 µM. This molecule displayed a TGI in test [7] of over 100 µM.
Regarding `COc1cccc2c1C(=O)c1c(O)c3c(c(O)c1C2=O)C[C@@](O)(C(=O)CO)C[C@@H]3OC1C[C@H](N)[C@H](O)[C@H](C)O1` (stereo not given in full), the GI50 in test [4] was 0.0201 µM; in test [1], 0.0797 µM; in test [2], 0.0616 µM; in test [3] it was 0.167 µM; in test [6], 0.0368 µM; in test [8] it was 0.0751 µM. In addition, in test [7], the GI50 is 0.0409 µM. For the same molecule, the TGI in test [4] was 0.102 µM; in test [1], 0.198 µM; in test [2], 0.982 µM; in test [6], 0.104 µM; in test [8], 0.25 µM; in test [7], 1.06 µM.
As to `CCN1c2ccccc2C(Cl)(c2ccc(N(C)C)cc2)c2ccccc21`, the GI50 in test [4] is 14.6 µM; in test [1] it was 7.96 µM; in test [2], 5.61 µM; in test [5], 13.3 µM; in test [3], 2.93 µM; in test [6] it was 3.76 µM. Besides, in test [7], the GI50 is 4.22 µM. Besides, the TGI was 34.5 µM in test [4]; 22.4 µM in test [1]; 19.3 µM in test [2]; 44.6 µM in test [5]; 8.53 µM in test [3]; 15 µM in test [6]. In test [7], this molecule gave a TGI of 64.2 µM.
Turning to `COc1ccc(/C=C\c2cc(OC)c(OC)c(OC)c2)cc1OC(=O)CCC(=O)O`, the TGI in test [4] was under 0.0001 µM; in test [1] it was over 100 µM; in test [2], 45.1 µM; in test [7], 97.1 µM. Further, in test [6], the GI50 was under 0.0001 µM.
On to `Cc1cc(=O)oc2cc(OCc3c(F)cccc3Cl)ccc12`, for which the TGI in test [4] was over 100 µM; in test [1], over 100 µM; in test [2], over 100 µM; in test [3], over 100 µM; in test [6], over 100 µM; in test [8], 27.5 µM. Further, the TGI in test [7] is over 100 µM.
With `Cc1ccc2c(c1)NC(=O)CC(c1ccccc1)=N2`, the TGI in test [4], in test [1], in test [2], in test [5], in test [3] and in test [6] was over 100 µM throughout. Further, the TGI in test [7] is over 100 µM.
With `COc1ccc2nc3cc(Cl)ccc3c(NCCCNCCC(C)O)c2c1` (stereo not given), the GI50 in test [4] is 0.943 µM; in test [2] it was 0.523 µM; in test [5], 2.46 µM; in test [3], 0.368 µM; in test [8] it was 0.414 µM; in test [7] it was 1.04 µM. For the same molecule, the TGI in test [4] was 3.11 µM; in test [2], 2.52 µM; in test [5], 15.5 µM; in test [3], 1.68 µM; in test [8] it was 1.74 µM; in test [7] it was 4.04 µM.
With `Cc1ccc(-c2cc(C3=CC(=O)C=CC3=O)n(-c3ccc(S(N)(=O)=O)cc3)n2)cc1`, the GI50 is 54 µM in test [4]; over 100 µM in test [1]; 55.3 µM in test [2]; 44.5 µM in test [3]; 83.1 µM in test [6]; over 100 µM in test [8]. Moreover, the GI50 in test [7] was 46.8 µM. Moreover, the TGI in test [4], in test [1], in test [2], in test [3], in test [6] and in test [8] was over 100 µM each time. The same molecule had a TGI in test [7] of over 100 µM.
For `CC(=O)OC1CC2(O)C3CCC4CC(O)CCC4(C)C3CCC2(C)C1C1=CC(=O)OC1` (stereo not given), the TGI in test [4] was determined as 0.784 µM; in test [1], 0.654 µM; in test [2], 0.15 µM; in test [5] it was 0.298 µM; in test [3] it was 0.172 µM; in test [6], 0.116 µM. Also, in test [7], the TGI was 0.73 µM.
Take `S=C1Nc2ccc(Cl)cc2C2(c3ccccc3)N3CCN=C3NN12` (stereo not given): the GI50 in test [4] is 33.9 µM; in test [1], 30.9 µM; in test [2] it was 28.6 µM; in test [5] it was 48.8 µM; in test [3] it was 25.7 µM; in test [6], 28.1 µM. In test [7], the GI50 was 30.8 µM. Further, the TGI in test [4] is over 100 µM; in test [1], over 100 µM; in test [2] it was over 100 µM; in test [5] it was over 100 µM; in test [3], 55.2 µM; in test [6] it was 45.4 µM. In test [7], this molecule gave a TGI of 99 µM.
